In US11986000B2, “Whey protein extracts and their use as sphingomyelin source” (SOCIETE DES PRODUITS NESTLE S.A., priority 2017, dated 2024):

Experiment: Determination of total SM in raw materials and finished product by HPLC-ELSD
Conditions: analysed versus theoretical SM in infant formula powders
Description: 1.2. Determination of Total SM in Raw Materials and Finished Product by HPLC-ELSD
Calibration standard stock solution was prepared by dissolving 140 mg of certified milk lecithin and 10 mg of PG (internal standard) in 100 mL of chloroform/methanol (9/1, v/v) solution. Further dilutions of this solution was performed in chloroform/methanol (9/1, v/v) to yield six standard levels, ranging from 0.012 to 0.249 g L−1 for SM and 0.005 to 0.100 g L^−1 for PG.
Sample extraction and chromatographic analysis, including chromatography columns and detector settings, were completed according to the procedure as described by Braun et al. (2010) with the following minor modifications. […] EZChrom software package (Agilent Technologies) was used to control the chromatograph and results were analysed using OpenLab software (Agilent Technologies).
SM was identified within the certified milk lecithin based on peak location in the elution sequence, retention time and characteristic peak shape, as described by Braun et al. (2010). […] A six-point calibration curve was prepared for both SM ([…], R^2=:=::0.996) and PG (0.025-0.507 g L^−1, R^2=:=::0.996) for quantification. […] Quantification of SM was as described by Braun et al. (2010) using the following equation: […]

Stability of SM during the manufacturing processes: stable against degradation
Substance: sphingomyelin [SM]
